Source: patent US20150118179A1, “BIOCIDAL COMPOUNDS AND METHODS FOR USING SAME” (UNIVERSITY OF MANITOBA, priority 2012, published 2015)
“And” between values parts separate entries of the source, which are not always exact repeats. Equal entries are not always repeated.

What was measured:
CA-MRSA 40065 = assay: Biocidal activity in bacterial suspension (Example 18); format: cell-based, Staphylococcus aureus; settings: 15 ppm [Cl+]
Protocol: Logarithmic-phase cultures of MRSA were prepared using similar way except TSA broth was used instead.
(§1) Biocidal activity of synthetic compounds was completed as followed. To 20 mL of bacterial suspension (10^5 or 10^6 cfu/mL) in a centrifuge tube was added 30 μL solution of synthetic compounds (0.282 M stock solution) to achieve a final [Cl^+] of 15 ppm. Timing of the exposure to the disinfectant was started immediately with the addition of the synthetic compound. After predetermined contact time, 1.0 mL aliquots were withdrawn and added to an equal volume of 0.02 N sodium thiosulfate in PBS (0.1 M, pH 7.4). The quenched suspension was serially diluted and 100 μL of each resulting dilution was placed onto nutrient agar plates. After being incubated at 37° C. for 24 hours, the viable bacterial colonies on the plates were counted. Bacterial reduction was reported according to:
(§2) Percentage reduction of bacteria (%)=(A−B)/A×100
(§3) Log reduction=Log(A/B) (4)
(§4) where A is the number of bacteria in the starting inoculum (cfu/mL), and B is the number of bacteria retrieved from synthetic compounds (cfu/mL).

P. aeruginosa 73104 = assay: as above; format: cell-based, Pseudomonas aeruginosa; settings: Table 4, 15 ppm [Cl+], inoculum 2.26-2.98 × 10^5 CFU/mL
Protocol: Logarithmic-phase cultures of P. aeruginosa were prepared by initially suspending several colonies in cation-supplemented Mueller-Hinton broth (Oxoid, Nepean, Ontario, Canada) at a density equivalent to a 0.5 McFarland standard (1×10^8 cfu/mL). This suspension was then diluted 1:100 and 20 μL of the diluted suspension was further diluted in 60 mL of cation-supplemented Mueller-Hinton broth. Following overnight growth at 37° C., suspensions were diluted 1:[…] to get inoculums of approximately 1×10^6 or 1×10^5 cfu/mL.
as §1, §2, §3, §4

[1] = Table 5, contact 3 min, inoculum 2.83 × 10^6 cfu/mL
[2] = Table 5, contact 5 min, inoculum 2.83 × 10^6 cfu/mL
[3] = Table 5, contact 10 min, inoculum 2.83 × 10^6 cfu/mL
[4] = Table 5, contact 20 min, inoculum 2.83 × 10^6 cfu/mL
[5] = Table 5, contact 30 min, inoculum 2.83 × 10^6 cfu/mL
[6] = Table 5, contact 45 min, inoculum 2.83 × 10^6 cfu/mL
[7] = Table 5, contact 60 min, inoculum 2.83 × 10^6 cfu/mL

Compound	Bacteria reduction % (CA-MRSA 40065; [1]) [%]	Bacteria reduction % (CA-MRSA 40065; [2]) [%]	Bacteria reduction Log (CA-MRSA 40065; [2])	Bacteria reduction % (CA-MRSA 40065; [3]) [%]	Bacteria reduction Log (CA-MRSA 40065; [3]) [Log]	Bacteria reduction % (CA-MRSA 40065; [4]) [%]	Bacteria reduction Log (CA-MRSA 40065; [4]) [Log]	Bacteria reduction % (CA-MRSA 40065; [5]) [%]	Bacteria reduction Log (CA-MRSA 40065; [5]) [Log]	Bacteria reduction % (CA-MRSA 40065; [6]) [%]	Bacteria reduction Log (CA-MRSA 40065; [6]) [Log]	Bacteria reduction % (CA-MRSA 40065; [7]) [%]	Bacteria reduction Log (CA-MRSA 40065; [7]) [Log]	Bacteria reduction % (P. aeruginosa 73104; contact 3 min) [%]	Bacteria reduction Log (P. aeruginosa 73104; contact 3 min) [Log]	Bacteria reduction % (P. aeruginosa 73104; contact 5 min) [%]	Bacteria reduction Log (P. aeruginosa 73104; contact 5 min) [Log]	Bacteria reduction % (P. aeruginosa 73104; contact 10 min) [%]	Bacteria reduction Log (P. aeruginosa 73104; contact 10 min) [Log]	Bacteria reduction % (P. aeruginosa 73104; contact 20 min) [%]	other results
CCCCCCCCCCCC[N+](C)(C)CCn1cc(C[N+](C)(C)CCCN2C(=O)NC(C)(C)C2=O)nn1 [Compound 15]	86.9	79.5	0.69 Log	85.1	0.83	67.8	0.49	79.8	0.70	92.6	1.13	87.3	0.89	75.7	0.74	98.4	1.88	99.9	3.02	99.97	Bacteria reduction % (CA-MRSA 40065; independent of contact duration (3-60 minutes)): around 80%; Bacteria reduction Log (P. aeruginosa 73104; contact 20 min): 4.32 Log; Bacteria reduction % (P. aeruginosa 73104; contact 30 min): 100%; Bacteria reduction Log (P. aeruginosa 73104; contact 30 min): 5.47 Log; Bacteria reduction % (P. aeruginosa 73104; contact 45 min): 100%; Bacteria reduction Log (P. aeruginosa 73104; contact 45 min): 5.47 Log; Bacteria reduction % (P. aeruginosa 73104; contact 60 min): 100%; Bacteria reduction Log (P. aeruginosa 73104; contact 60 min): 5.47 Log
CCCCCCCCCCCC[N+](C)(C)CCn1cc(C[N+](C)(C)CCCN2C(=O)N(Cl)C(C)(C)C2=O)nn1 [Compound 16]	84.4	93.4	> 1 Log and 1.18 Log	99.8	2.77	100	6.45	100	6.45	100	6.45	100	6.45	99.6	2.62	99.97	4.32	100	5.47	100	Bacteria reduction Log (P. aeruginosa 73104; contact 20 min): 5.47 Log; Bacteria reduction % (P. aeruginosa 73104; contact 30 min): 100%; Bacteria reduction Log (P. aeruginosa 73104; contact 30 min): 5.47 Log; Bacteria reduction % (P. aeruginosa 73104; contact 45 min): 100%; Bacteria reduction Log (P. aeruginosa 73104; contact 45 min): 5.47 Log; Bacteria reduction % (P. aeruginosa 73104; contact 60 min): 100%; Bacteria reduction Log (P. aeruginosa 73104; contact 60 min): 5.47 Log
